Data on 19 molecules can be found in patent US20100075978A1, “SULFONAMIDE DERIVATIVES AS BRADYKININ ANTAGONISTS” (priority 2006, published 2010).

Assay [1] deals with T1, recombinant human B1 receptors (Homo sapiens, UniProt P46663).
T1 construct: host or cells: CHO (CHO-B1)
T1 sequence (P46663 1-353): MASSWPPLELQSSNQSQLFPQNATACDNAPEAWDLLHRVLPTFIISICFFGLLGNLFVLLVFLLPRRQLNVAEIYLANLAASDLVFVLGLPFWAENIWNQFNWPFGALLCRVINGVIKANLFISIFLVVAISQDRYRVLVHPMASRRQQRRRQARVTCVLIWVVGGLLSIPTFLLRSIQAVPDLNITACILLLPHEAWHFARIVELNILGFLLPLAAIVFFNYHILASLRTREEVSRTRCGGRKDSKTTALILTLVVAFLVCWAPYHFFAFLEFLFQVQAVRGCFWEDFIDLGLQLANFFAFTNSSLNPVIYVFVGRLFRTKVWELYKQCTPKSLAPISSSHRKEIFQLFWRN
The assay can be described thus: Functional assay: cytosolic calcium ion concentration measured with plate reader fluorimeter in CHO-B1 cells, agonist LysDABK. Format: cell-based. How it is done:
Assessment of Antagonist Potency at B1 and B2 Receptors In Vitro by Measurement of Cytosolic Calcium Ion Concentration with a Plate Reader Fluorimeter in Cells Expressing Recombinant Human B1 or B2 Receptors
Chinese hamster ovary (CHO) cells stably expressing recombinant human B1 (CHO-B1, Euroscreen) or B2 (CHO-B2, Perkin-Elmer) receptors were cultured in Dulbecco's Modified Eagle's Medium (DMEM) containing 10% Fetal Calf Serum (FCS), 100 U/ml penicillin, 0.1 mg/ml streptomycin, 0.25 μg/ml amphotericin B, 1% Minimum Essential Medium Eagle (MEM), non essential amino acid solution, 600 μg/ml G418, 1% pyruvate (for the B2 cell line). Cells were kept at 37° C. in a humidified incubator in an atmosphere of 5% CO2/95% air and were passaged 1:4 three times a week. Cells were plated at 1.5-2.5×10^4 cell/well on standard 96-well microplates, measurements of cytosolic calcium ion concentration ([Ca^2+]i) were carried out 1-2 days after cell plating.
Measurements of [Ca^2+]i were carried out on CHO-B1 and CHO-B2 cells stably expressing human B1 and B2 receptors, respectively. Cells were grown in standard 96-well microplates and before the measurement were loaded with a fluorescent Ca^2+-sensitive dye, fluo-4/AM (2 μM): after removing the culture medium the dye was added to the cells (dissolved in assay buffer: 145 mM NaCl, 5 mM KCl, 2 mM MgCl2, 2 mM CaCl2, 10 mM HEPES, 20 mM D-glucose, 2 mM probenecid, 100 μl/well) and cells were incubated at 37° C. in a humidified incubator in an atmosphere of 5% CO2/95% air for 40-120 min. To stop dye loading cells were washed twice with assay buffer. After washing, various concentrations of the test compounds (diluted in extracellular medium from a DMSO stock solution, final DMSO concentration was <0.1%) or buffer were added to each well depending on the experimental setup. After incubation at 37° C. for 20-25 min. baseline and agonist-evoked changes of [Ca^2+]i were measured column by column with a plate reader fluorimeter (Fluoroskan Ascent, Labsystems). Excitation and detection of emission was carried out from the bottom of the plate. Filters used for Fluo-4: excitation filter—485 nm, emission filter—538 nm. The whole measurement process was performed at 37° C. and was controlled by custom software. Inhibitory potency of the test compounds was assessed by measuring the reduction in the agonist-evoked [Ca^2]i-elevation in the presence of different concentrations of the compounds. The agonists were LysDABK for CHO-B1, and bradykinin for CHO-B2 cells. Agonists were applied at an EC80 concentration, the EC80-values were derived from daily determined dose-response curves. Fluorescence data were expressed as ΔF/F (fluorescence change normalized to baseline). All treatments on a single plate were measured in multiple wells. Data from all wells with the same treatment were averaged and the average values were used for analysis. Inhibitory potency of a compound at a single concentration point was expressed as percent inhibition of the control agonist response. Sigmoidal concentration-inhibition curves were fitted to the data (derived from at least three independent experiments) and IC50-values were determined as the concentration that produces half of the maximal inhibition caused by the compound.

The target of assay [2] is T2, human recombinant bradykinin B1 receptor (Homo sapiens, UniProt P46663).
T2 construct: purchased Euroscreen ES-091; host or cells: CHO cells
T2 sequence (P46663 1-353): T1 sequence (P46663 1-353)
Nature of the assay: Human recombinant bradykinin B1 receptor binding. How it is done: 1. Human Recombinant Bradykinin B1 Receptor Binding
Binding assays were carried out on human recombinant bradykinin) receptors (expressed in CHO cells) according to the Euroscreen Technical Data Sheet (Cat.No.:ES-091). 20 μg protein/tube was incubated with [3,4-prolyl-3,4-^3H(N)]-[Des-Arg^10] Kallidin as radioligand. Non specific binding was determined in the presence of 10 μM Lys-des-Arg^9-Bradykinin. The final incubation volume was 250 μl. Samples were incubated for 15 min. at 25° C. then were rapidly vacuum filtered through GF/B filters presoaked for at least 1 h in 0.5% PEI. Radioactivity was determined by liquid scintillation spectroscopy.

The mark [3] stands for this setting: CHO-B1 cells, LysDABK at EC80, [Ca2+]i, read-out: B1 func.
Where [4] appears, read: radioligand [3H]-[Des-Arg10] Kallidin, CHO cell membranes, read-out: B1 binding.

SMILES strings stand for the structures. Structures can show the parent of a compound that is named as a salt. Where two headings read alike, the source gives them in different places.

With `O=C(NCc1ccc(CC2CCNCC2)cc1)c1ccc(S(=O)(=O)Nc2ccccc2Oc2ccc(Br)cc2Cl)cc1` [Example 166, 4-[2-(4-Bromo-2-chloro-phenoxy)-phenylsulfamoyl]-N-(4-piperidin-4-ylmethyl-benzyl)-benzamide hydrochloride], in assay [1] (setting [3]), the IC50 is 0.02 to 0.1 µM. Further, in assay [2] (setting [4]), the Ki was in the range of 0.02 to 0.1 µM.
With `O=C(NCCCN1CCN(c2ccncc2)CC1)c1ccc(S(=O)(=O)Nc2cc(F)ccc2Oc2ccc(Br)cc2)cc1` [Example 105, 4-[2-(4-Bromo-phenoxy)-5-fluoro-phenylsulfamoyl]-N-[3-(4-pyridin-4-yl-piperazin-1-yl)-propyl]-benzamide], the IC50 in assay [1] (setting [3]) was below 0.02 µM. Besides, the Ki in assay [2] (setting [4]) is below 0.02 µM.
With `O=C(NCCCN1CCC(N2CCCCC2)CC1)c1ccc(S(=O)(=O)Nc2ccccc2Oc2ccc(F)cc2Cl)cc1` [Example 116, N-(3-[1,4′]Bipiperidinyl-1′-yl-propyl)-4-[2-(2-chloro-4-fluoro-phenoxy)-phenylsulfamoyl]-benzamide], the IC50 in assay [1] (setting [3]) is below 0.02 µM. Moreover, in assay [2] (setting [4]), the Ki was below 0.02 µM.
`COc1cc(Cl)ccc1Oc1ccccc1NS(=O)(=O)c1ccc(C(=O)NCCCN2CCC(N3CCCCC3)CC2)cc1` [Example 132, N-(3-[1,4′]Bipiperidinyl-1′-yl-propyl)-4-[2-(4-chloro-2-methoxy-phenoxy)-phenylsulfamoyl]-benzamide]: the IC50 in assay [1] (setting [3]) fell in the range of 0.02 to 0.1 µM. For the same molecule, the Ki in assay [2] (setting [4]) is below 0.02 µM.
For `CN1CCC(N2CCC(CCNC(=O)c3ccc(S(=O)(=O)Nc4ccccc4Oc4ccc(Cl)cc4Cl)cc3)CC2)CC1` [Example 24, 4-[2-(2,4-Dichloro-phenoxy)-phenylsulfamoyl]-N-[2-(1-methyl-[1,4′]bipiperidinyl-4-yl)-ethyl]-benzamide], in that order: below 0.02 µM and below 0.02 µM.
Take `O=C(NCCCN1CCC(N2CCCCC2)CC1)c1ccc(S(=O)(=O)Nc2cc(F)ccc2Oc2ccc(Br)cc2)cc1` [Example 102, N-(3-[1,4′]Bipiperidinyl-1′-yl-propyl)-4-[2-(4-bromo-phenoxy)-5-fluoro-phenylsulfamoyl]-benzamide]: in assay [1] (setting [3]), the IC50 is below 0.02 µM. Besides, the Ki in assay [2] (setting [4]) is below 0.02 µM.
With `O=C(NCCCN1CCCCC1)c1ccc(S(=O)(=O)Nc2ccccc2Oc2ccc(Cl)cc2Cl)cc1` [Example 76, 4-[2-(2,4-Dichloro-phenoxy)-phenylsulfamoyl]-N-(3-piperidin-1-yl-propyl)-benzamide], the IC50 in assay [1] (setting [3]) fell in the range of 0.02 to 0.1 µM. Moreover, in assay [2] (setting [4]), the Ki is 0.02 to 0.1 µM.
Regarding `CN1CCN(C(=O)C2CCN(S(=O)(=O)c3ccc(NCC(c4ccccc4)c4ccccc4)c(C(=O)N4CCOCC4)c3)CC2)CC1` [NVP-SAA164, 4-{2-[(2,2-diphenyl-ethyl)-amino]-5-{4-[4-[(4-methyl-1-piperazinyl)-carbonyl]-1-piperidinyl]-sulfonyl}-benzoyl}-morfoline, reference compound], the IC50 in assay [1] (reference compounds, functional test, read-out: IC50) came to 0.033 µM. Also, the Ki in assay [2] (reference compounds, binding test, read-out: Ki) worked out at 0.008 µM.
Regarding `O=C(NCCCCC1CCNCC1)c1ccc(S(=O)(=O)Nc2ccccc2Oc2ccc(Br)cc2)cc1` [Example 101, 4-[2-(4-Bromo-phenoxy)-phenylsulfamoyl]-N-(4-piperidin-4-yl-butyl)-benzamide hydrochloride], in assay [1] (setting [3]), the IC50 lay within 0.02 to 0.1 µM. The Ki in assay [2] (setting [4]) was 0.02 to 0.1 µM.
`O=C(N[C@H]1CC[C@H](CCN2CCCC2)CC1)c1ccc(S(=O)(=O)Nc2ccccc2Oc2ccc(Cl)c(Cl)c2)cc1` [Example 64, trans-4-[2-(3,4-Dichloro-phenoxy)-phenylsulfamoyl]-N-[4-(2-pyrrolidin-1-yl-ethyl)-cyclohexyl]-benzamide]: in assay [1] (setting [3]), the IC50 is 0.02 to 0.1 µM. Moreover, the Ki in assay [2] (setting [4]) lay within 0.02 to 0.1 µM.
`O=C(NCCCN1CCC(N2CCCCC2)CC1)c1ccc(S(=O)(=O)Nc2ccccc2Oc2ccc(Br)cc2Cl)cc1` [Example 157, N-(3-[1,4′]Bipiperidinyl-1′-yl-propyl)-4-[2-(4-bromo-2-chloro-phenoxy)-phenylsulfamoyl]-benzamide]: the IC50 in assay [1] (setting [3]) is below 0.02 µM. Further, the Ki in assay [2] (setting [4]) is below 0.02 µM.
In the case of `O=C(NCCCC1CCNCC1)c1ccc(S(=O)(=O)Nc2ccccc2Oc2ccc(Br)cc2Cl)cc1` [Example 30, 4-[2-(4-Bromo-2-chloro-phenoxy)-phenylsulfamoyl]-N-(3-piperidin-4-yl-propyl)-benzamide hydrochloride], the IC50 in assay [1] (setting [3]) lay within 0.02 to 0.1 µM. The Ki in assay [2] (setting [4]) lay in the range of 0.02 to 0.1 µM.
On to `O=C(NCCCN1CCC(N2CCCCC2)CC1)c1ccc(S(=O)(=O)Nc2ccccc2Oc2ccccc2)cc1` [Example 152, N-(3-[1,4′]Bipiperidhlyl-1′-yl-propyl)-4-(2-phenoxy-phenylsulfamoyl)-benzamide], for which the IC50 in assay [1] (setting [3]) fell in the range of 0.02 to 0.1 µM. In addition, in assay [2] (setting [4]), the Ki lay in the range of 0.02 to 0.1 µM.
As for `O=C(NCCc1ccc(C2=NCCN2)cc1)c1ccc(S(=O)(=O)Nc2ccccc2Oc2ccc(Cl)cc2Cl)cc1` [Example 2, 4-[2-(2,4-Dichloro-phenoxy)-phenylsulfamoyl]-N-{2-[4-(4,5-dihydro-1H-imidazol-2-yl)-phenyl]-ethyl}-benzamide trifluoroacetate], in assay [1] (setting [3]), the IC50 is below 0.02 µM. For the same molecule, the Ki in assay [2] (setting [4]) was below 0.02 µM.
For `O=C(c1ccc(S(=O)(=O)Nc2ccccc2Oc2ccc(Cl)c(Cl)c2)cc1)N1CCN(CCCN2CCCCC2)CC1` [Example 87, N-[2-(3,4-Dichloro-phenoxy)-phenyl]-4-[4-(3-piperidin-1-yl-propyl)-piperazine-1-carbonyl]-benzenesulfonamide], the IC50 in assay [1] (setting [3]) was 0.1 to 0.5 µM. The Ki in assay [2] (setting [4]) lay in the range of 0.1 to 0.5 µM.
Turning to `O=C(Nc1ccc(N2CCC(N3CCCCC3)CC2)cc1)c1ccc(S(=O)(=O)Nc2cc(F)ccc2Oc2ccc(Br)cc2)cc1` [Example 58, N-(4-[1,4′]Bipiperidinyl-1′-yl-phenyl)-4-[2-(4-bromo-phenoxy)-5-fluoro-phenylsulfamoyl]-benzamide], the IC50 in assay [1] (setting [3]) was below 0.02 µM. For the same molecule, the Ki in assay [2] (setting [4]) was below 0.02 µM.
On to `O=C(NCCN1CCN(Cc2ccccn2)CC1)c1ccc(S(=O)(=O)Nc2ccccc2Oc2ccc(Br)cc2)cc1` [Example 99, 4-[2-(4-Bromo-phenoxy)-phenylsulfamoyl]-N-[2-(4-pyridin-2-ylmethyl-piperazin-1-yl)-ethyl]-benzamide], for which the IC50 in assay [1] (setting [3]) lay in the range of 0.02 to 0.1 µM. For the same molecule, the Ki in assay [2] (setting [4]) lay in the range of 0.02 to 0.1 µM.
`O=C(NCCCCC1CCNCC1)c1ccc(S(=O)(=O)Nc2ccccc2Oc2ccc(Br)cc2Cl)cc1` [Example 167, 4-[2-(4-Bromo-2-chloro-phenoxy)-phenylsulfamoyl]-N-(4-piperidin-4-yl-butyl)-benzamide hydrochloride]: the IC50 in assay [1] (setting [3]) lay within 0.02 to 0.1 µM. Further, the Ki in assay [2] (setting [4]) fell in the range of 0.02 to 0.1 µM.
Turning to `O=C(Nc1ccc(N2CCC(N3CCCCC3)CC2)cc1)c1ccc(S(=O)(=O)Nc2ccccc2Oc2ccc(Cl)cc2Cl)cc1` [Example 8, N-(4-[1,4′]Bipiperidinyl-1′-yl-phenyl)-4-[2-(2,4-dichloro-phenoxy)-phenylsulfamoyl]-benzamide], the IC50 in assay [1] (setting [3]) was 0.02 to 0.1 µM. For the same molecule, in assay [2] (setting [4]), the Ki was below 0.02 µM.
